# Measurements as given in patent publication US20250197372A1 (priority 2020, published 2025).
# Assays:
# Type in all cases: biochemical
# [1] = target: T1, recombinant alpha-glucosidase II (murine full-length glucosidase II, alpha and beta subunits, Glu 2) (Mus musculus, UniProt Q8BHN3); experiment: Alpha-glucosidase II assay (4-methylumbelliferyl-alpha-D-pyranoside substrate, fluorescence); conditions: Glucosidase 2; read-out: Glu2 IC50
# T1 construct: made in house; host or cells: HEK-293T cells transduced with BacMam viruses (75% alpha, 25% beta); protein harvested from culture supernatant
# T1 sequence (O08795 15-521): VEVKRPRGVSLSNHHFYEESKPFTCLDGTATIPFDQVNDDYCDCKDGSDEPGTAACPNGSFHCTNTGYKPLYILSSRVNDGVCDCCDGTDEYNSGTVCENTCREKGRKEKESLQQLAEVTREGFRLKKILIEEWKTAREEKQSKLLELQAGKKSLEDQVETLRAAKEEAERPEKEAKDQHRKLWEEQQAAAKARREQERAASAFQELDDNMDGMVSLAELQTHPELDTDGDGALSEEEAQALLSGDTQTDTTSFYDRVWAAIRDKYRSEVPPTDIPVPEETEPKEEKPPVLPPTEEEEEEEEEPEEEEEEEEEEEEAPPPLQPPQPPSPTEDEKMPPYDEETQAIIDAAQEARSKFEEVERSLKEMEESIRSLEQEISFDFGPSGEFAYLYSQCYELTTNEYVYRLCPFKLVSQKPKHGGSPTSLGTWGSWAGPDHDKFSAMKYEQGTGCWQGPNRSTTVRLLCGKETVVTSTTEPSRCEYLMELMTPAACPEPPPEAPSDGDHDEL
# T1 sequence (Q8BHN3 33-944): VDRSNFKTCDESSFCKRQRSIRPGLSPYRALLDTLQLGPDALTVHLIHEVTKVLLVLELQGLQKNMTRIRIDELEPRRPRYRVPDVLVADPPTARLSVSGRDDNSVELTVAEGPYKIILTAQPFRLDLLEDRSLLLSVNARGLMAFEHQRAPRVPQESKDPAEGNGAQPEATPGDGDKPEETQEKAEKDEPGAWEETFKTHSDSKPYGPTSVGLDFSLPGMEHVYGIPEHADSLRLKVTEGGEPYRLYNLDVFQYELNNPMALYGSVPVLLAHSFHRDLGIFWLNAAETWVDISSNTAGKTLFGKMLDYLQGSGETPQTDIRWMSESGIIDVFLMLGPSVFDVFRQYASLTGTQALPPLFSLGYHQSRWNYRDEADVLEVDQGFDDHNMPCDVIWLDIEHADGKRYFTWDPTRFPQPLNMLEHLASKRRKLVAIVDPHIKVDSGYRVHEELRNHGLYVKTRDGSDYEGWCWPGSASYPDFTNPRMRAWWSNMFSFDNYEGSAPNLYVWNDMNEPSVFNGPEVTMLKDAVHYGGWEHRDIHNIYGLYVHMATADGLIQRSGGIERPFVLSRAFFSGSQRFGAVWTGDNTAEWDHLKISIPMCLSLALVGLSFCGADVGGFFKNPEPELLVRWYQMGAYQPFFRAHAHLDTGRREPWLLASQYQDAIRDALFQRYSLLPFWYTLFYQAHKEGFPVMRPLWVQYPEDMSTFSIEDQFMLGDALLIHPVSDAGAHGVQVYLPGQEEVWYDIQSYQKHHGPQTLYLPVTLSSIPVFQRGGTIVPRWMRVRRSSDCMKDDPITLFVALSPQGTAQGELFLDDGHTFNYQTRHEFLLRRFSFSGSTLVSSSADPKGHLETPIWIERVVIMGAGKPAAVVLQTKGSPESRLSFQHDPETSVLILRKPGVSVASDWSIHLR
# [2] = target: recombinant human GAA (acid alpha-glucosidase) (Homo sapiens, UniProt P10253); experiment: Acid alpha-glucosidase (GAA) assay (4-methylumbelliferyl-alpha-D-pyranoside substrate, fluorescence)
# Procedure, shortened: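 IC50 from 4-PL curve fit of percent inhibition, based on fluorescence (365/440 nm) of released methylumbelliferone relative to uninhibited enzyme. Compound dilutions and human GAA incubated 60 min, 37 °C, before 20 min substrate reaction at 37 °C, quenched at pH 10.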
# [3] = target: T2, recombinant human GBA (beta-glucocerebrosidase) (Homo sapiens, UniProt P04062); experiment: Beta-glucocerebrosidase (GBA, glucosylceramidase) assay (4-methylumbelliferyl-beta-D-pyranoside substrate, fluorescence)
# T2 sequence (P04062 40-536): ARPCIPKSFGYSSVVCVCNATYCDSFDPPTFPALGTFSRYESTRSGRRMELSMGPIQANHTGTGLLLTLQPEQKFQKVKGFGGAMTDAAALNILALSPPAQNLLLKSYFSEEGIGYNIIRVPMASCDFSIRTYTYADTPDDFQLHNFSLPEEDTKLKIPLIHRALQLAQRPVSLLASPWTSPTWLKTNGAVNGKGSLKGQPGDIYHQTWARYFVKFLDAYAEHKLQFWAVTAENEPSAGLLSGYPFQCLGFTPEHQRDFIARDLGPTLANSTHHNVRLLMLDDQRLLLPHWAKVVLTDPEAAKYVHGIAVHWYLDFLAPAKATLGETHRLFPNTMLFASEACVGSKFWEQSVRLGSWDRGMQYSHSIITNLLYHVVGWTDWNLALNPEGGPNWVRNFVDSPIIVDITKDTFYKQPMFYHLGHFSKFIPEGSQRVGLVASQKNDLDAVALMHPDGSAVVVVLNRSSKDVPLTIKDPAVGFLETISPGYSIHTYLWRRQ
# Procedure, shortened: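 IC50 by four-parameter fit of percent inhibition, with product fluorescence (365/440 nm) read after a glycine/NaOH pH 10 stop. Compound and commercial recombinant human enzyme were incubated 60 min at 37 °C before a further 60 min at 37 °C with 4-methylumbelliferyl-beta-D-pyranoside substrate.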
# [4] = target: rat sucrase (partially purified alpha-glucosidase from intestinal rat powder) (Rattus norvegicus, UniProt P23739); experiment: Intestinal alpha-glucosidase assay, sucrose substrate (Glucose GO Kit)
# Chain of rat sucrase (partially purified alpha-glucosidase from intestinal rat powder) (P23739 whole entry): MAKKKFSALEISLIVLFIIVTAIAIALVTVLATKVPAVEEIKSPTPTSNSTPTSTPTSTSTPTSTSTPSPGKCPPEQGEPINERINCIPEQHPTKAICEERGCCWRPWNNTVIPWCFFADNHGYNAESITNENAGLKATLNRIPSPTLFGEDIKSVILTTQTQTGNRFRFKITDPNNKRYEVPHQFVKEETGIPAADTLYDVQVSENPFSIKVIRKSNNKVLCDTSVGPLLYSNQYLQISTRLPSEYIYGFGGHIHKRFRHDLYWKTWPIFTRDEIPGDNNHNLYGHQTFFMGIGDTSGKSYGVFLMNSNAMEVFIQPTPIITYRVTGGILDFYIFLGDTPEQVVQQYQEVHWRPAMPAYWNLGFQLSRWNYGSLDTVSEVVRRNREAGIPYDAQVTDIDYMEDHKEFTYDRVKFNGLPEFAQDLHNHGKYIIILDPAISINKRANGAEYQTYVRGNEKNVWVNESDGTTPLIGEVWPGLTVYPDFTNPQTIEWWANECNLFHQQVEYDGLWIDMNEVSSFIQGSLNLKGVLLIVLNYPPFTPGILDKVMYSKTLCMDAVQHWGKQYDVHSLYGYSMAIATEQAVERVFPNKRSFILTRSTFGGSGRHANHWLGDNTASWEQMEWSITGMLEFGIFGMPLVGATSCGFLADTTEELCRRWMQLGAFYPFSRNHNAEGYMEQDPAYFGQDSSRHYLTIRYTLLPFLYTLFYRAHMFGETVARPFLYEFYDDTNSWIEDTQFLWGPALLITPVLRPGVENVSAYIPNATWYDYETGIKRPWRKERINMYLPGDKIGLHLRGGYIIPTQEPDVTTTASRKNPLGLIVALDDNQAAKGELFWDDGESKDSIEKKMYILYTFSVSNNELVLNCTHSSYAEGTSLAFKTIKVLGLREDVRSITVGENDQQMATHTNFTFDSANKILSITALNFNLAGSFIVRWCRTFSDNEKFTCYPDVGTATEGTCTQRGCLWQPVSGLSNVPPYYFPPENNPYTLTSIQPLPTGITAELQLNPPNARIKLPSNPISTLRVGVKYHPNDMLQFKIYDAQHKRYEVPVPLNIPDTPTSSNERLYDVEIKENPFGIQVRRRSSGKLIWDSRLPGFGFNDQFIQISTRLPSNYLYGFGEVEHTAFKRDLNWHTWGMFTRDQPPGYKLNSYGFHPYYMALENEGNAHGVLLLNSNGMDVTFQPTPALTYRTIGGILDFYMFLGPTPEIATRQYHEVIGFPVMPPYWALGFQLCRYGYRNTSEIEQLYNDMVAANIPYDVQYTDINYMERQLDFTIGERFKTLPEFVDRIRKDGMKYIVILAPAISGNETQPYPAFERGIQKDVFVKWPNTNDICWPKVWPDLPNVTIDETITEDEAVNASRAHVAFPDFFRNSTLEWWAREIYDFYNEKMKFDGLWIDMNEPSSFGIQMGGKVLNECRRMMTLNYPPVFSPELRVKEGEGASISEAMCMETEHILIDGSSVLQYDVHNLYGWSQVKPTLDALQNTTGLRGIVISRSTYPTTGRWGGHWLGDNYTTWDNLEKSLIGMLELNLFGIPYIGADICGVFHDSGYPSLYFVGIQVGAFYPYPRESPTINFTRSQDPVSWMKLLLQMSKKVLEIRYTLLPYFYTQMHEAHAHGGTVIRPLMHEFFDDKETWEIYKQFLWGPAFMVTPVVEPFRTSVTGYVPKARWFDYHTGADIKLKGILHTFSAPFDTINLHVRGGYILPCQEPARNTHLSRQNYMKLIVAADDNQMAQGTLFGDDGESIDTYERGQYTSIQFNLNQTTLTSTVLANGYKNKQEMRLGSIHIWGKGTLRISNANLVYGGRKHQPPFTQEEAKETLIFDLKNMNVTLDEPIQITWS
# Procedure, shortened: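 Glucose release is the read-out: compounds at multiple dilutions are first held with partially purified rat intestinal alpha-glucosidase for 60 min at 37 °C, after which maltose or sucrose substrate reacts for 30 min at 37 °C before a 5 min 90 °C stop. IC50 comes from a four-parameter logistic fit.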
Structure (SMILES),IC50 [1] [nM],IC50 [2] [nM],IC50 [3] [nM],IC50 [4] [nM]
"[N-]=[N+]=Nc1ccc(NCCCCCCN2C[C@H](O)[C@@H](O)[C@H](O)[C@H]2CO)c(C(N)=O)c1 [Compound 1296, 5-azido-2-({6-[(2R,3R,4R,5S)-3,4,5-trihydroxy-2-(hydroxymethyl)piperidin-1-yl]hexyl}amino)benzamide]",29,124,3260,494
"CN(C)Cc1ccc(NCCCCCCN2C[C@H](O)[C@@H](O)[C@H](O)[C@H]2CO)c(C#N)c1 [Compound 1257, 5-[(dimethylamino)methyl]-2-({6-[(2R,3R,4R,5S)-3,4,5-trihydroxy-2-(hydroxymethyl)piperidin-1-yl]hexyl}amino)benzonitrile]",19,73,6530,70
"COCCCCCN(CCCNc1ccc(N=[N+]=[N-])cc1[N+](=O)[O-])CCCN1C[C@H](O)[C@@H](O)[C@H](O)[C@H]1CO [Compound 1221, (2R,3R,4R,5S)-1-[3-({3-[(4-azido-2-nitrophenyl)amino]propyl}(5-methoxypentyl)amino)propyl]-2-(hydroxymethyl)piperidine-3,4,5-triol]",220,4510,57,424
"[N-]=[N+]=Nc1ccc(NCCS(=O)(=O)CCCN2C[C@H](O)[C@@H](O)[C@H](O)[C@H]2CO)c([N+](=O)[O-])c1 [Compound 1274, (2R,3R,4R,5S)-1-(3-{2-[(4-azido-2-nitrophenyl)amino]ethane-sulfonyl}propyl)-2-(hydroxymethyl)piperidine-3,4,5-triol]",48,136,2990,738
"[N-]=[N+]=Nc1ccc(N2CCN(CCN3C[C@H](O)[C@@H](O)[C@H](O)[C@H]3CO)CC2)c([N+](=O)[O-])c1 [Compound 1254, (2R,3R,4R,5S)-1-{2-[4-(4-azido-2-nitrophenyl)piperazin-1-yl]ethyl}-2-(hydroxymethyl)piperidine-3,4,5-triol]",865,> 100000,> 100000,6530
"O=[N+]([O-])c1cc(Br)ccc1NCc1cccc(CN2C[C@H](O)[C@@H](O)[C@H](O)[C@H]2CO)c1 [Compound 1029, (2R,3R,4R,5S)-1-[(3-{[(4-bromo-2-nitrophenyl)-amino]methyl}phenyl)methyl]-2-(hydroxymethyl)piperidine-3,4,5-triol]",20400,1330,52300,< 1
"Cc1cc(NCc2cnc(CN3C[C@H](O)[C@@H](O)[C@H](O)[C@H]3CO)cn2)cc(-c2ccc[nH]2)c1 [Compound 1330, (2R,3R,4R,5S)-2-(hydroxymethyl)-1-{[5-({[3-methyl-5-(1H-pyrrol-2-yl)phenyl]amino}methyl)pyrazin-2-yl]methyl}piperidine-3,4,5-triol]",14400,90,13200,595
[N-]=[N+]=Nc1ccc(NCCN(CCC(N)=O)CCN2C[C@H](O)[C@@H](O)[C@H](O)[C@H]2CO)c([N+](=O)[O-])c1 [Compound 1235],530,37800,11400,8650
"COc1ccc(-c2ccc(CN3C[C@H](O)[C@@H](O)[C@H](O)[C@H]3CO)cc2)cc1 [Compound 1306, (2R,3R,4R,5S)-2-(hydroxymethyl)-1-({4′-methoxy-[1,1′-biphenyl]-4-yl}methyl)piperidine-3,4,5-triol]",44000,4570,> 100000,< 10
"Nc1ccc(NCCCCCCCCN2C[C@H](O)[C@@H](O)[C@H](O)[C@H]2CO)c([N+](=O)[O-])c1Cl [Compound 1277, (2R,3R,4R,5S)-1-{8-[(4-amino-3-chloro-2-nitrophenyl)amino]octyl} 2-(hydroxymethyl)piperidine-3,4,5-triol]",< 1,< 10,< 10,133
"Cc1cc(NCc2cccc(CN3C[C@H](O)[C@@H](O)[C@H](O)[C@H]3CO)n2)cc(-c2ncccn2)c1 [Compound 1322, (2R,3R,4R,5S)-2-(hydroxymethyl)-1-{[6-({[3-methyl-5-(pyrimidin-2-yl)phenyl]amino}methyl)pyridin-2-yl]methyl}piperidine-3,4,5-triol]",32400,1110,99000,481
"Cc1cc(Br)cc(NCc2cccc(CN3C[C@H](O)[C@@H](O)[C@H](O)[C@H]3CO)c2)c1 [Compound 1021, (2R,3R,4R,5S)-1-[(3-{[(3-bromo-5-methylphenyl)amino]methyl}phenyl)methyl]-2-(hydroxymethyl)piperidine-3,4,5-triol]",35000,2090,25800,1
"Cc1cc(NCc2cccc(CN3C[C@H](O)[C@@H](O)[C@H](O)[C@H]3CO)c2)cc(N2CCOCC2)c1 [Compound 1031, (2R,3R,4R,5S)-2-(hydroxymethyl)-1-{[3-({[3-methyl-5-(morpholin-4-yl)phenyl]amino}methyl)phenyl]methyl}piperidine-3,4,5-triol]",10700,5220,> 100000,288
"NC(=O)CCN(CCNc1ccc(-c2ncccn2)cc1[N+](=O)[O-])CCN1C[C@H](O)[C@@H](O)[C@H](O)[C@H]1CO [Compound 1226, 3-[(2-{[2-nitro-4-(pyrimidin-2-yl)phenyl]amino}ethyl)({2-[(2R,3R,4R,5S)-3,4,5-trihydroxy-2-(hydroxymethyl)piperidin-1-yl]ethyl})amino]propanamide]",1350,20900,3210,793
"[N-]=[N+]=Nc1ccc(NCCn2cc(CCN3C[C@H](O)[C@@H](O)[C@H](O)[C@H]3CO)nn2)c([N+](=O)[O-])c1 [Compound 1272, (2R,3R,4R,5S)-1-[2-(1-{2-[(4-azido-2-nitrophenyl)amino]ethyl}-1H-1,2,3-triazol-4-yl)ethyl]-2-(hydroxymethyl)piperidine-3,4,5-triol]",39,800,4100,1880
"Cc1cc(NCc2cccc(CN3C[C@H](O)[C@@H](O)[C@H](O)[C@H]3CO)n2)cc(N2CCOCC2)c1 [Compound 1336, (2R,3R,4R,5S)-2-(hydroxymethyl)-1-{[6-({[3-methyl-5-(morpholin-4-yl)phenyl]amino}methyl)pyridin-2-yl]methyl}piperidine-3,4,5-triol]",> 100000,10400,> 100000,21300
"Cc1cc(NCc2ccc(CN3C[C@H](O)[C@@H](O)[C@H](O)[C@H]3CO)cc2)cc(-c2ccco2)c1 [Compound 1317, (2R,3R,4R,5S)-1-{[4-({[3-(furan-2-yl)-5-methylphenyl]amino}methyl)phenyl]methyl}-2-(hydroxymethyl)piperidine-3,4,5-triol]",1200,480,45100,< 1
"OC[C@@H]1[C@@H](O)[C@H](O)[C@@H](O)CN1Cc1ccc(CNc2ccc(Br)cc2)cc1 [Compound 1028, (2R,3R,4R,5S)-1-[(4-{[(4-bromophenyl)amino]methyl}phenyl)methyl]-2-(hydroxymethyl)piperidine-3,4,5-triol]",827,666,12900,11
"CC#Cc1ccc(NCCCCCCN2C[C@H](O)[C@@H](O)[C@H](O)[C@H]2CO)c([N+](=O)[O-])c1 [Compound 1290, (2R,3R,4R,5S)-2-(hydroxymethyl)-1-(6-{[2-nitro-4-(prop-1-yn-1-yl)phenyl]amino}hexyl)piperidine-3,4,5-triol]",1.2,21,175,< 10
"[N-]=[N+]=Nc1ccc(NCCC(O)C(O)CCN2C[C@H](O)[C@@H](O)[C@H](O)[C@H]2CO)c([N+](=O)[O-])c1 (stereo partly drawn) [Compound 1270, (2R,3R,4R,5S)-1-{6-[(4-azido-2-nitrophenyl)amino]-3,4-dihydroxy-hexyl}-2-(hydroxymethyl)piperidine-3,4,5-triol]",46,190,81,350
